Results from article PMC8700709, “Cannabidiol Inhibits Tau Aggregation In Vitro” (Cells, 2021).

Target: T1, tau protein 1N/4R isoform (Homo sapiens, UniProt P10636)
T1 construct: gene MAPT; recombinant human His-tagged tau 1N/4R isoform, expressed in E. coli BL21(DE3)
Test: intrinsic Tyr fluorescence quenching titration (Stern-Volmer/Hill; Kb at […] °C), Job's plot […]; supported by ThT aggregation assay, CD and AFM
Assay type: binding
Settings: read-out: Kb×10^4(M^-1) (converted)

T1 sequence (P10636 1-412 isoform P10636-7): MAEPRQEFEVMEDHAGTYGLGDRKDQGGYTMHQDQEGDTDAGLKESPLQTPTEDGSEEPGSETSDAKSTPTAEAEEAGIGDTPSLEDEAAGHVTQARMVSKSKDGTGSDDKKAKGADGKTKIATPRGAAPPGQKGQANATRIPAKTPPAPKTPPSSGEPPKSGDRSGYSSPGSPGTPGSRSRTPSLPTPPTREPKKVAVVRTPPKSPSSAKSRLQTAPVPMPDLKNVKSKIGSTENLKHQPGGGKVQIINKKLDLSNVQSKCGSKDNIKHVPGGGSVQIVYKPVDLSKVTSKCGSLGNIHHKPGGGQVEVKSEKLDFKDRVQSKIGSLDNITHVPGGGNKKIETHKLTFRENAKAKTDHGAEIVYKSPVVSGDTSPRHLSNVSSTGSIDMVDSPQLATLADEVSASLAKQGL

C=C(C)[C@@H]1CCC(C)=C[C@H]1c1c(O)cc(CCCCC)cc1O [Cannabidiol]
Kd: 23.8 µM
